Data as given in patent US20260224588A1, “BENZODIAZEPINONE-DERIVED INHIBITORS OF EGFR AND HER2” (The Research Foundation for the State University of New York, priority 2023, published 2026).

What was measured:
Experiment in all cases: KINOMEscan
Assay type in all cases: binding
Conditions in all cases: 1 μM of compound 4; read-out: POC
ROS1 = target: T1, ROS1 (Homo sapiens, UniProt P08922)
T1 construct: purchased Eurofins DiscoverX Corporation (KINOMEscan screening service)

LTK = LTK (Homo sapiens, UniProt P29376)
GRK3 = target: T2, GRK3 (Homo sapiens, UniProt P35626)
T2 construct: purchased Eurofins DiscoverX Corporation

[1] = target: T3, ABL1(Y253F)-phosphorylated (Homo sapiens, UniProt P00519, Y253F)
T3 construct: purchased Eurofins DiscoverX Corporation

FAK = target: T4, FAK (Homo sapiens, UniProt Q05397)
T4 construct: purchased Eurofins DiscoverX Corporation

EPHA5 = target: T5, EPHA5 (Homo sapiens, UniProt P54756)
T5 construct: purchased Eurofins DiscoverX (KINOMEscan service)

EPHB4 = target: T6, EPHB4 (Homo sapiens, UniProt P54760)
T6 construct: purchased Eurofins DiscoverX (KINOMEscan service)

MAP4K5 = MAP4K5 (Homo sapiens, UniProt Q9Y4K4)
PKN2 = PKN2 (Homo sapiens, UniProt Q16513)
Chain of PKN2 (Q16513 whole entry): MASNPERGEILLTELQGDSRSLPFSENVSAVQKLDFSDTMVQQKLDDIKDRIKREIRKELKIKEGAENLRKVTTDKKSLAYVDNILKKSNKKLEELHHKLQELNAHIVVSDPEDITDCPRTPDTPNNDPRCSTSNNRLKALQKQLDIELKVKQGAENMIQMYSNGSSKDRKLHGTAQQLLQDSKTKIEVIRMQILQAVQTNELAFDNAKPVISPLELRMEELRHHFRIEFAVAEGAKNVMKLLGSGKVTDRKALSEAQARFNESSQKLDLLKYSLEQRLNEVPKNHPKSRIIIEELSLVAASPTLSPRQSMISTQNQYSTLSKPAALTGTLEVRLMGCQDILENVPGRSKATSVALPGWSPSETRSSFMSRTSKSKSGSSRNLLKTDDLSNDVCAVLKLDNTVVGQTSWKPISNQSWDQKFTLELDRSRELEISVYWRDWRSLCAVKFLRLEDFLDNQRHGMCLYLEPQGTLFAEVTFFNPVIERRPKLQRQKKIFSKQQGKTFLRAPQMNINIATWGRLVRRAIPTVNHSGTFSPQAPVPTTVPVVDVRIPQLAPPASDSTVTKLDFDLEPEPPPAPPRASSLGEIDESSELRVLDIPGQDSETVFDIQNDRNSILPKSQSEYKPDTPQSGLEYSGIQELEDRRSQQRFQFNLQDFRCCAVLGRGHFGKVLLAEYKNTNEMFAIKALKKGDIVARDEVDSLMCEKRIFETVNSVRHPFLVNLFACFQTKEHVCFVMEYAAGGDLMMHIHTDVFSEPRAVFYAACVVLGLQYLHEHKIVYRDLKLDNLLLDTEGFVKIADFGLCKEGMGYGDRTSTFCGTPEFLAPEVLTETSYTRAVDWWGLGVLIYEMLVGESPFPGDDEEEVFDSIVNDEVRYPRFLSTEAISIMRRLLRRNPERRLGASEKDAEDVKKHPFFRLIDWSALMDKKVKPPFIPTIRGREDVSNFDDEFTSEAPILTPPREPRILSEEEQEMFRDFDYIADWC

SIK2 = target: T7, SIK2 (Homo sapiens, UniProt Q9H0K1)
T7 construct: purchased Eurofins DiscoverX (KINOMEscan service)

DCAMKL1 = DCAMKL1 (Homo sapiens, UniProt O15075)
PIP5K2C = PIP5K2C (Homo sapiens, UniProt Q8TBX8)
PIK3CG = PIK3CG (Homo sapiens, UniProt P48736)
ERK4 = target: T8, ERK4 (Homo sapiens, UniProt P31152)
T8 construct: purchased Eurofins DiscoverX Corporation
T8 sequence (P31152 whole entry): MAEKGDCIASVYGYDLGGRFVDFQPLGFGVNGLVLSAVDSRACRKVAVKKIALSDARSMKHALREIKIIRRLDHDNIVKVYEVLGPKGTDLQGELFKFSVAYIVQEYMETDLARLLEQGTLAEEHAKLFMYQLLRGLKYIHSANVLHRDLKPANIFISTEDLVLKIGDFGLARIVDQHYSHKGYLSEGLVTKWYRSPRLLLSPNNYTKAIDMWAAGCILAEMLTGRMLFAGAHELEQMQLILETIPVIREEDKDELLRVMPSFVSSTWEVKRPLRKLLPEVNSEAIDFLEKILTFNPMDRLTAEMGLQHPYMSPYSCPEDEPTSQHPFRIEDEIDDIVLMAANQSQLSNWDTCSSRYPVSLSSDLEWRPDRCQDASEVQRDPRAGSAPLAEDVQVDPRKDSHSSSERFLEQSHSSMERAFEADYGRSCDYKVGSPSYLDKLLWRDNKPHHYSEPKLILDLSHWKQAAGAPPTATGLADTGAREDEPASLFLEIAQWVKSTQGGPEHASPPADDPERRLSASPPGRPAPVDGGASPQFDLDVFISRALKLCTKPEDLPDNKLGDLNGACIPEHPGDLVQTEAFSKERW

GSK3B = target: T9, GSK3B (Homo sapiens, UniProt P49841)
T9 construct: purchased Eurofins DiscoverX Corporation

SRMS = target: T10, SRMS (Homo sapiens, UniProt Q9H3Y6)
T10 construct: purchased Eurofins DiscoverX (KINOMEscan service)

BRSK2 = BRSK2 (Homo sapiens, UniProt Q8IWQ3)
LYN = LYN (Homo sapiens, UniProt P07948)
PRKD3 = PRKD3 (Homo sapiens, UniProt O94806)
MAP4K4 = MAP4K4 (Homo sapiens, UniProt O95819)
AURKB = AURKB (Homo sapiens, UniProt Q96GD4)
FLT3(R834Q) = target: T11, FLT3(R834Q) (Homo sapiens, UniProt P36888, R834Q)
T11 construct: purchased Eurofins DiscoverX Corporation

PRKD2 = PRKD2 (Homo sapiens, UniProt Q9BZL6)
AURKC = AURKC (Homo sapiens, UniProt Q9UQB9)
WEE2 = target: T12, WEE2 (Homo sapiens, UniProt P0C1S8)
T12 construct: purchased Eurofins DiscoverX

NEK6 = NEK6 (Homo sapiens, UniProt Q9HC98)
MEK6 = MEK6 (Homo sapiens, UniProt P52564)
CSNK1G3 = CSNK1G3 (Homo sapiens, UniProt Q9Y6M4)
Chain of CSNK1G3 (Q9Y6M4 whole entry): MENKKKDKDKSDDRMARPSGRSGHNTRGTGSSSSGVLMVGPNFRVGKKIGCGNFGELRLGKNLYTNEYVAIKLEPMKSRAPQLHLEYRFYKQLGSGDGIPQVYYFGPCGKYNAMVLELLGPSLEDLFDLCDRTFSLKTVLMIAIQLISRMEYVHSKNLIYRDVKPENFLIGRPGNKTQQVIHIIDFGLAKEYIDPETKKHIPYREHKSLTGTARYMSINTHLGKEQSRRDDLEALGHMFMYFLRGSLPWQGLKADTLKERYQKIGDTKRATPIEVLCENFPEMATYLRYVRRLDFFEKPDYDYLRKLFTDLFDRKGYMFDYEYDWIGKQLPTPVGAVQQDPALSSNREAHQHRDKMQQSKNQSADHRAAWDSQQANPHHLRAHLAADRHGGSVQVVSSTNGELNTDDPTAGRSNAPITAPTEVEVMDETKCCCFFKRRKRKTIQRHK

CAMK2G = CAMK2G (Homo sapiens, UniProt Q13555)
PFPK5(P. falciparum) = target: T13, PFPK5(P. falciparum) (Plasmodium falciparum, UniProt P61075)
T13 construct: purchased Eurofins DiscoverX Corporation (KINOMEscan)
T13 sequence (P61075 whole entry): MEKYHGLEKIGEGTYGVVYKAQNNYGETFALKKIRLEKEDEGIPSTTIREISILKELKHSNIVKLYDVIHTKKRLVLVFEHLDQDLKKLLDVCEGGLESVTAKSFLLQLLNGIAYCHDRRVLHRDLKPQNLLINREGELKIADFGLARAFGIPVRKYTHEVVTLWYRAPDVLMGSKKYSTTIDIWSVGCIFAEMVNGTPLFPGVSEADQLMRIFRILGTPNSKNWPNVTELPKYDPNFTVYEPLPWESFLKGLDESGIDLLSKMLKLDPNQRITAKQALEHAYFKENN

EGFR(T790M) = target: T14, EGFR(T790M) (Homo sapiens, UniProt P00533, T790M)
T14 construct: purchased Eurofins DiscoverX (KINOMEscan service)

ULK1 = target: T15, ULK1 (Homo sapiens, UniProt O75385)
T15 construct: purchased Eurofins DiscoverX

DAPK1 = DAPK1 (Homo sapiens, UniProt P53355)
RIPK1 = target: T16, RIPK1 (Homo sapiens, UniProt Q13546)
T16 construct: purchased Eurofins DiscoverX Corporation (KINOMEscan screening service)

MRCKB = MRCKB (Homo sapiens, UniProt Q9Y5S2)
RIOK1 = target: T17, RIOK1 (Homo sapiens, UniProt Q9BRS2)
T17 construct: purchased Eurofins DiscoverX Corporation (KINOMEscan screening service)

PHKG2 = PHKG2 (Homo sapiens, UniProt P15735)
GRK2 = target: T18, GRK2 (Homo sapiens, UniProt P25098)
T18 construct: purchased Eurofins DiscoverX Corporation

PRKCQ = PRKCQ (Homo sapiens, UniProt Q04759)
MST4 = MST4 (Homo sapiens, UniProt Q9P289)
Chain of MST4 (Q9P289 whole entry): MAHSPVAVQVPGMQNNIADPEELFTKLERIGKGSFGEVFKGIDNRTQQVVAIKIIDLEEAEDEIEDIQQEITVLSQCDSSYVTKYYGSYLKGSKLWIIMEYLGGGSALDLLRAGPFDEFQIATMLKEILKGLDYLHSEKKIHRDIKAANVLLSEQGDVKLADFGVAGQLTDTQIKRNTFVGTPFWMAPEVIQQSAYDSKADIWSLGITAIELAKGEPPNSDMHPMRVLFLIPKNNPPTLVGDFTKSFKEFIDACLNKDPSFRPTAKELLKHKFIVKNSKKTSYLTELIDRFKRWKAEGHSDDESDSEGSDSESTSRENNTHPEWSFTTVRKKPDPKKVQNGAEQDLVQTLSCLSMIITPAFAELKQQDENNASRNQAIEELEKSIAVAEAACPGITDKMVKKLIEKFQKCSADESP

T1 sequence (P08922 28-2347): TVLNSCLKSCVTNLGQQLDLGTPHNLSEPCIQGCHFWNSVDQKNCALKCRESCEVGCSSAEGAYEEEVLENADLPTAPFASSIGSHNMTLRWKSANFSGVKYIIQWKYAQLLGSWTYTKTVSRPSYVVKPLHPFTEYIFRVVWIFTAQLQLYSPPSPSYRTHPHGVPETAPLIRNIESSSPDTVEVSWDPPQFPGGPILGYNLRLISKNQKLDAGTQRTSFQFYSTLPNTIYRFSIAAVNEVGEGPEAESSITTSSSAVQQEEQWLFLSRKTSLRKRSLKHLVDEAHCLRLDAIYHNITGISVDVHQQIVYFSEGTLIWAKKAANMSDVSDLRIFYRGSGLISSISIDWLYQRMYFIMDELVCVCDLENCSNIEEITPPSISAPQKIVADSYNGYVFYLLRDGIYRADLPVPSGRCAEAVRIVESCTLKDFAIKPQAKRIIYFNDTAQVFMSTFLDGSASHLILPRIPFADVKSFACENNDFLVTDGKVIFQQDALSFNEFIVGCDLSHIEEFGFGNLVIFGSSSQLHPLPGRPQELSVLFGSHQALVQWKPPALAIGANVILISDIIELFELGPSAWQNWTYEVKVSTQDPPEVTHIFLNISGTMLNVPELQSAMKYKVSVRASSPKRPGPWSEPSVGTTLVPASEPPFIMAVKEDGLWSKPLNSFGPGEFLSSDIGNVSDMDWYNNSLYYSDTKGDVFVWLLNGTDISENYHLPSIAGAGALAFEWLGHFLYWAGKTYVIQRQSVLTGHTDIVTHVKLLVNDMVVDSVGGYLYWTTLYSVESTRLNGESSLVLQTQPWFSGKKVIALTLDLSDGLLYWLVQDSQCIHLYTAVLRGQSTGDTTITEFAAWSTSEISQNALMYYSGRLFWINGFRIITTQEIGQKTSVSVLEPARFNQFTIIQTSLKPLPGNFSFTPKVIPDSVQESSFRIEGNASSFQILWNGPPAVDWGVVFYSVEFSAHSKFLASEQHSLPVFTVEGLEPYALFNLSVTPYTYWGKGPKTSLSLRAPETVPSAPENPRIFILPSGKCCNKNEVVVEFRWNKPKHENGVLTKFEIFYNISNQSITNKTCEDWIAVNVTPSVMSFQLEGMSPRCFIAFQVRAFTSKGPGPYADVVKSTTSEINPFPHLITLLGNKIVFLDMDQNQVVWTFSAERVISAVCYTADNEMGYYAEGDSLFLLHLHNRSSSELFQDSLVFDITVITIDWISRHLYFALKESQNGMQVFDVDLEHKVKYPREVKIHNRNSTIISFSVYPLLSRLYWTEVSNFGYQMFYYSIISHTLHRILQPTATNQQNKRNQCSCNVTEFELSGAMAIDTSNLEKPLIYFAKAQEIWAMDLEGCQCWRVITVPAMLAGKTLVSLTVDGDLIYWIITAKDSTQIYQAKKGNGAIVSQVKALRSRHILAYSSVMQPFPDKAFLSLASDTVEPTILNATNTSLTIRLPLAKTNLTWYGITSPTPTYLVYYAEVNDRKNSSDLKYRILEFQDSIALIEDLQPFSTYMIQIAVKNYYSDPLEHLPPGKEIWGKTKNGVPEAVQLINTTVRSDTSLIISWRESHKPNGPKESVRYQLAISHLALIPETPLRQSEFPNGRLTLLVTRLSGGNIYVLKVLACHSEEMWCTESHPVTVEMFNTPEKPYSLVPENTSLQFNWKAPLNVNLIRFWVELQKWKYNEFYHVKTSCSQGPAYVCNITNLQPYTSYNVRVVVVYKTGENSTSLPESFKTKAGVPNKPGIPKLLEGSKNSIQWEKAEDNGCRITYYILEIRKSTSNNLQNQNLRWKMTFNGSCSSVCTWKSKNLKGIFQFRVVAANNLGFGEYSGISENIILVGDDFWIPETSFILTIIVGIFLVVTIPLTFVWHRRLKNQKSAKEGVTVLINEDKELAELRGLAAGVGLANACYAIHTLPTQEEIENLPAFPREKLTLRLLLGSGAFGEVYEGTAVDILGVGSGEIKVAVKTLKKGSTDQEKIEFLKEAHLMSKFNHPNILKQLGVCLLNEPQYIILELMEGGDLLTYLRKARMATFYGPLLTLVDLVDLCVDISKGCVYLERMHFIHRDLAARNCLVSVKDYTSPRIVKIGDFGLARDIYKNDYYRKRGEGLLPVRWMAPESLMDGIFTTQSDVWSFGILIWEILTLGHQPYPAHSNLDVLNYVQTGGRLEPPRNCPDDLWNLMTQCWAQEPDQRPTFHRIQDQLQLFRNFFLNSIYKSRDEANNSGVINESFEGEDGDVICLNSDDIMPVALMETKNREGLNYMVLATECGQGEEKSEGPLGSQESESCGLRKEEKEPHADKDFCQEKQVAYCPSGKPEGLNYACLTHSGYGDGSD

C=CC(=O)Nc1ccc(OC)c(Nc2cc(-c3[nH]c(CC)nc3-c3cccc(NC(=O)c4cccc5c4NC(=O)c4ccccc4N5)c3)ccn2)c1 [Compound 4, N-(3-(5-(2-((5-Acrylamido-2-methoxyphenyl)amino)pyridin-4-yl)-2-ethyl-1H-imidazol-4-yl)phenyl)-11-oxo-10,11-dihydro-5H-dibenzo[b,e][1,4]diazepine-9-carboxamide]
remaining binding at 1 µM (ROS1): 80%
remaining binding at 1 µM (LTK): 48%
remaining binding at 1 µM (GRK3): 100%
remaining binding at 1 µM [1]: 72%
remaining binding at 1 µM (FAK): 99%
remaining binding at 1 µM (EPHA5): 100%
remaining binding at 1 µM (EPHB4): 100%
remaining binding at 1 µM (MAP4K5): 2.5%
remaining binding at 1 µM (PKN2): 100%
remaining binding at 1 µM (SIK2): 100%
remaining binding at 1 µM (DCAMKL1): 100%
remaining binding at 1 µM (PIP5K2C): 66%
remaining binding at 1 µM (PIK3CG): 65%
remaining binding at 1 µM (ERK4): 100%
remaining binding at 1 µM (GSK3B): 100%
remaining binding at 1 µM (SRMS): 61%
remaining binding at 1 µM (BRSK2): 93%
remaining binding at 1 µM (LYN): 22%
remaining binding at 1 µM (PRKD3): 67%
remaining binding at 1 µM (MAP4K4): 6.1%
remaining binding at 1 µM (AURKB): 100%
remaining binding at 1 µM (FLT3(R834Q)): 100%
remaining binding at 1 µM (PRKD2): 62%
remaining binding at 1 µM (AURKC): 100%
remaining binding at 1 µM (WEE2): 98%
remaining binding at 1 µM (NEK6): 100%
remaining binding at 1 µM (MEK6): 73%
remaining binding at 1 µM (CSNK1G3): 98%
remaining binding at 1 µM (CAMK2G): 100%
remaining binding at 1 µM (PFPK5(P. falciparum)): 100%
remaining binding at 1 µM (EGFR(T790M)): 12%
remaining binding at 1 µM (ULK1): 100%
remaining binding at 1 µM (DAPK1): 86%
remaining binding at 1 µM (RIPK1): 100%
remaining binding at 1 µM (MRCKB): 1.7%
remaining binding at 1 µM (RIOK1): 100%
remaining binding at 1 µM (PHKG2): 73%
remaining binding at 1 µM (GRK2): 100%
remaining binding at 1 µM (PRKCQ): 18%
remaining binding at 1 µM (MST4): 94%
